Data published in patent US5066654A, “2-aryl-3-heterocyclicmethyl-3H-imidazo[4,5-b]pyridines as anxiolytics and anticonvulsants” (A. H. Robins Company, Incorporated, priority 1990, dated 1991).
Several values for one entry are separate records, joined by “and”; a condition that tells them apart may be missing. Equal values may be shown once. Read-outs that look alike come from different tables or passages of the source.

Legend:
mouse [1] = assay: exploratory light/dark test procedure (anxiolytic activity); type: in vivo
Description: Anxiolytic activity also was evaluated in vivo in an exploratory […] test procedure [Young et al., Soc. Neurosci. Abs. 14,207 (1988) and Costall et al., Brit. J. Pharmacol. 93,985 (1988)]. Briefly, test compound was administered to a mouse which was placed in a two compartment light-dark activity monitoring box. Control animals typically move to the dark side of the box to avoid the bright light. Animals treated with anxiolytic agents spend more time exploring the lit side of the box than control animals. […]
The following table summarizes the results of representative compounds of this invention in the light/dark exploratory test procedure for anxiolytic activity. Compounds were compared with diazepam as a reference standard at each dose level.

benzodiazepine receptor = assay: inhibition of [^3 H]-flunitrazepam binding to the benzodiazepine receptor
Description: Anxiolytic activity was evaluated in vitro according to the method of Chiu et al. [Mol. Pharmacol. 21, 57 (1982)] by determining the IC50 for the inhibition of [^3 H]-flunitrazepam binding to the benzodiazepine receptor.
*Inhibition of [^3 Hflunitroazepam binding to the benzodiazepine

mouse [2] = assay: loss of righting reflex test procedure (ataxia); type: in vivo
Description: Compounds with anticonvulsant activity typically cause ataxia, an undesirable side effect, at some dose. Representative compounds of this invention were evaluated in a loss of righting reflex test procedure [A. P. Roszkowski, J. Pharmacol. Exp. Ther. 129, 75-81 (1960)]. Briefly, the compound to be evaluated was administered to a mouse which was then placed upside down in its cage. Failure to right itself within 20 seconds was considered to be loss of the righting reflex. Results are expressed as percent of mice losing righting reflex at a given dose.

adult female mice [3] = assay: SC-MET, subcutaneous Metrazole (pentylenetetrazol) test (chemically induced seizures); type: in vivo; details: for ED50: Mus musculus, sc, ED50 for protection
Description: (§1) Briefly, test compound was administered to adult female mice, followed by either electrical (60 Hz, 5 msec. pulse width […] intensity for 0.2 seconds) or chemical [Metrazole® (pentylenetetrazol)] challenge. […] Results are expressed either as percent protection at a given dose or as the ED50 for protection.
^+ SCMET = subcutaneous Metrazole ® test; results given as %
protection at a given dose (mg/kg) or ED50 (mg/kg).

adult female mice [4] = assay: MES, maximal electroshock test (electrically induced seizures); type: in vivo; details: Mus musculus; for responders at 100 mg/kg / responders at 31.6 mg/kg: read-out: MES (% protection)
Description: as §1
**MES = Maximal electroshock test; results given as % protection at a
given dose (mg/kg) or ED50 (mg/kg).

[5] = [^3 H]-flunitrazepam, in vitro, read-out: ^3 H-Flu binding IC50

SMILES	IC50 (benzodiazepine receptor; [5])	% Loss of Righting Reflex (mouse [2]; dose 100 mg/kg)	responders at 100 mg/kg (adult female mice [4])	ED50 (adult female mice [3])	% of Time in Lit Area, Compound (mouse [1]; dose 3.16 mg/kg)	% of Time in Lit Area, Compound (mouse [1]; dose 10.0 mg/kg)	other results
CN1C(=O)CN=C(c2ccccc2)c2cc(Cl)ccc21 [Diazepam, diazepam, reference compound]							% of Time in Lit Area, Diazepam (mouse [1]; diazepam reference, row of dose 0.01 mg/kg): 27%; % of Time in Lit Area, Diazepam (mouse [1]; diazepam reference, row of dose 0.1 mg/kg): 27%; % of Time in Lit Area, Diazepam (mouse [1]; diazepam reference, row of dose 1.0 mg/kg, 1 mg/kg): 28% and 26%; % of Time in Lit Area, Diazepam (mouse [1]; diazepam reference, row of dose 3.16 mg/kg, 3.16 mg/kg): 26% and 27% and 28%; % of Time in Lit Area, Diazepam (mouse [1]; diazepam reference, row of dose 5.62 mg/kg): 27%; % of Time in Lit Area, Diazepam (mouse [1]; diazepam reference, row of dose 10.0 mg/kg, 10 mg/kg): 26% and 28%; sedation, Diazepam (mouse [1]; diazepam reference, row of dose 17.8 mg/kg): sedation; % of Time in Lit Area, Diazepam (mouse [1]; diazepam reference, row of dose 31.6 mg/kg, 31.6 mg/kg): 28% and 26%; % of Time in Lit Area, Diazepam (additional result) (mouse [1]; dose of 10 mg/kg, additional result in footnote): 28%
Clc1ccc(-c2nc3cccnc3n2Cc2ccccn2)cc1 [Example 1, 2-(4-Chlorophenyl)-3-(2-pyridinylmethyl)-3H-imidazo[4,5-b]pyridine]	7 µM	0%	0%				SC-MET (% protection) (adult female mice [3]; dose 100 mg/kg): 37.5%
Cc1ccc(-c2nc3cccnc3n2Cc2ccccn2)cc1 [Example 2, 2-(4-Methylphenyl)-3-(2-pyridinylmethyl)-3H-imidazo[4,5-b]pyridine]	3.1 µM	0%	25%	48.7 mg/kg			
Clc1ccc(-c2nc3ccc(Cl)nc3n2Cc2ccccn2)cc1 [Example 3, 5-Chloro-2-(4-chlorophenyl)-3-(2-pyridinylmethyl)-3H-imidazo[4,5-b]pyridine]	3.3 µM	0%	0%				SC-MET (% protection) (adult female mice [3]; dose 100 mg/kg): 62.5%
Cc1ccc(-c2nc3ccc(Cl)nc3n2Cc2ccccn2)cc1 [Example 4, 5-Chloro-2-(4-methylphenyl)-3-(2-pyridinylmethyl)-3H-imidazo[4,5-b]pyridine]	1.6 µM	0%		38.8 mg/kg			
Cc1ccc(-c2nc3ccc(Cl)nc3n2Cc2ncc[nH]2)cc1 [Example 5, 5-Chloro-3-(1H-imidazol-2-ylmethyl)-2-(4-methylphenyl)-3H-imidazo[4,5-b]pyridine]	0.3 µM	0%	0%	6.92 mg/kg			
Cc1ccc(-c2nc3ccc(C)nc3n2Cc2ccccn2)cc1 [Example 6, 5-Methyl-2-(4-methylphenyl)-3-(2-pyridinylmethyl)-3H-imidazo[4,5-b]pyridine]	3.9 µM	0%	12.5%	38.1 mg/kg	36%	38%	
Cc1ccc2nc(-c3ccc(Cl)cc3)n(Cc3ccccn3)c2n1 [Example 7, 2-(4-Chlorophenyl)-5-methyl-3-(2-pyridinylmethyl)-3H-imidazo[4,5-b]pyridine]	7.3 µM	62.5%		29.4 mg/kg			ED50 (adult female mice [4]; ED50 for protection): 76 mg/kg
Clc1ccc(-c2nc3cccnc3n2Cc2ncc[nH]2)cc1 [Example 8, 2-(4-Chlorophenyl)-3-(1H-imidazol-2-ylmethyl)-3H-imidazo[4,5-b]pyridine]	0.41 µM						% Loss of Righting Reflex (mouse [2]; dose 31.6 mg/kg): 0%; SC-MET (% protection) (adult female mice [3]; dose 31.6 mg/kg): 0%; responders at 31.6 mg/kg (adult female mice [4]): 0%
Cc1ccc(-c2nc3cccnc3n2Cc2ncc[nH]2)cc1 [Example 9, 3-(1H-Imidazol-2-ylmethyl)-2-(4-methylphenyl)-3H-imidazo[4,5-b]pyridine]	0.14 µM			15.4 mg/kg			responders at 31.6 mg/kg (adult female mice [4]): 0%
Clc1ccc(-c2nc3ccc(Cl)nc3n2Cc2ncc[nH]2)cc1 [Example 10, 5-Chloro-2-(4-chlorophenyl)-3-(1H-imidazol-2-ylmethyl)-3H-imidazo[4,5-b]pyridine]	0.13 µM	0%		8.6 mg/kg	49%	40%	IC50 (benzodiazepine receptor; obtained on reevaluation, read-out: ^3 H-Flu binding IC50 (reevaluation)): 0.16 µM; % of Time in Lit Area, Compound (mouse [1]; dose 0.01 mg/kg): 35%; % of Time in Lit Area, Compound (mouse [1]; dose 0.1 mg/kg): 37%; % of Time in Lit Area, Compound (mouse [1]; dose 5.62 mg/kg): 49%; % of Time in Lit Area, Compound (additional result) (mouse [1]; dose 10 mg/kg, additional result in footnote): 38%; sedation, Compound (mouse [1]; mouse, in vivo, 17.8 mg/kg): sedation
Cc1c[nH]c(Cn2c(-c3ccc(Cl)cc3)nc3cccnc32)n1 [Example 11, 2-(4-Chlorophenyl)-3-(4-methyl-1H-imidazol-2-ylmethyl)-3H-imidazo[4,5-b]pyridine]	0.39 µM	0%	0%	16.8 mg/kg	40%	40%	% of Time in Lit Area, Compound (mouse [1]; dose 1.0 mg/kg): 38%; % of Time in Lit Area, Compound (mouse [1]; dose 31.6 mg/kg): 53%
Cc1ccc(-c2nc3cccnc3n2Cc2nc(C)c[nH]2)cc1 [Example 12]	0.22 µM	0%	0%	14.8 mg/kg	40%	51%	% of Time in Lit Area, Compound (mouse [1]; dose 1.0 mg/kg): 38%; % of Time in Lit Area, Compound (mouse [1]; dose 31.6 mg/kg): 48%
